# According to US12018014B2, “Pyrrole-substituted indolone derivative or pharmaceutically acceptable salts thereof, and preparation method therefor and application thereof” (SUZHOU GENHOUSE PHARMACEUTICAL CO., LTD., priority 2018, dated 2024):
# Marks after values point to notes of the source that are not given here.
# Experiments:
# [1] = tested on: human MV-4-11 cell strain; assay: MTS in vitro antiproliferative activity; assay type: cell-based; conditions: MV4-11, 72 hours, read-out: IC50, in vitro proliferation of human MV-4-11 cell strain
# Experimental: The human acute leukemia cell MV-4-11 is an Flt-3 mutant cell strain. The MTS method was used to determine the in vitro antiproliferative activity of the compound against MV-4-11 (derived from ATCC): trypsinizing the cells in the logarithmic growth phase, counting them, resuspending an appropriate number of the cells in the culture solution, adding the culture solution to the 96-well plate by 150 μL per well, and culturing it overnight. After that, 50 μL of 4-fold serially diluted test compound or control culture solution was added to each well, and cultured for 72 hours. The culture solution was drained, and 120 μL of MTS detection solution (100 μL of fresh culture medium and 20 μL of MTS solution) was added to each well, and incubated at 37° C., and the OD490 value was read. Graphpad Prism5 software was used to analyze and process the data to obtain IC50.
# [2] = tested on: MV-4-11 transplanted tumor; assay: MV-4-11 subcutaneously transplanted tumor in nude mice; assay type: in vivo, Balb/c nude mice; conditions: for Average volume of tumor d15: d15 (start of administration); for Average volume of tumor d15 / Average volume of tumor d36: mean ± S.E, n=6; for Average volume of tumor d36 / anti-tumor effect (in words): 21 days
# Source text: The formula of calculating the tumor volume (TV) is TV=½×a×b^2, where a represents the long diameter of the tumor and b represents the short diameter of the tumor.
# KDR (VEGFR2) = KDR (VEGFR2) (Homo sapiens (Human), UniProt P35968); assay: HTRF in vitro tyrosine kinase inhibition; assay type: biochemical; conditions: ATP 120 μM, read-out: IC50 against KDR
# Experimental: (§1) The in vitro inhibitory activity of the compounds on tyrosine kinase was measured by HTRF (Homogeneous Time-Resolved Fluorescence) method.
# (§2) The compounds were serially diluted with DMSO in a 96-well plate into 8 solutions of different concentrations with 100 times the final concentration. Then a buffer solution, which was prepared by adding 5 mM MgCl2 and 1 mM DTT to 1-fold Enzymetic buffer provided by the kit, was diluted in a 96-well plate into a solution with 5 times the final concentration.
# (§3) The diluted compounds were added to a 384-well plate, respectively, and double wells were provided for each concentration. Then 0.25 ng of kinase was added per well. At the same time, negative and positive wells were provided, and the well to which 5% DMSO of the same volume was added was taken as control. […] Preincubation was carried out for 10 minutes at room temperature. A substrate with a final concentration of 1 μM and ATP with a final concentration of 120 μM were added, and incubated at room temperature for 90 minutes. Then, a fluorescent acceptor (XL665 labeled streptavidin) with a final concentration of 0.0625 μM and 1-fold fluorescent donor (Europium cryptate labeled TK antibody) with a final concentration of 0.0625 μM were added, and incubated at room temperature for 60 minutes. The plates were read by a microplate reader under the conditions of λex=330 nm, λem=620 nm and λem=665 nm. A ratio between the reading at 665 nm and the reading at 620 nm was calculated, and the inhibition rate was calculated according to this ratio.
# FLT3-ITD = FLT3-ITD (Homo sapiens, UniProt P36888, ITD); assay: HTRF in vitro tyrosine kinase inhibition; assay type: biochemical
# Experimental: as §1, §2, §3
# ALK = ALK (Homo sapiens (Human), UniProt Q9UM73); assay: HTRF in vitro tyrosine kinase inhibition; assay type: biochemical; conditions: ATP 120 μM, read-out: IC50 against ALK
# Experimental: as §1, §2, §3
# FLT3 D835Y = FLT3 D835Y (Homo sapiens (Human), UniProt P36888, D835Y); assay: HTRF in vitro tyrosine kinase inhibition; assay type: biochemical; conditions: ATP 120 μM, read-out: IC50 against FLT3 D835Y
# Experimental: as §1, §2, §3
# PDGFRβ = PDGFRβ (Homo sapiens (Human), UniProt P09619); assay: HTRF in vitro tyrosine kinase inhibition; assay type: biochemical; conditions: ATP 120 μM, read-out: IC50 against PDGFRβ
# Experimental: as §1, §2, §3
# FGFR1 = FGFR1 (Homo sapiens (Human), UniProt P11362); assay: HTRF in vitro tyrosine kinase inhibition; assay type: biochemical; conditions: ATP 120 μM, read-out: IC50 against FGFR1
# Experimental: as §1, §2, §3
# RET = RET (Homo sapiens (Human), UniProt P07949); assay: HTRF in vitro tyrosine kinase inhibition; assay type: biochemical; conditions: ATP 120 μM, read-out: IC50 against RET
# Experimental: as §1, §2, §3
# FLT3 = FLT3 (Homo sapiens (Human), UniProt P36888); assay: HTRF in vitro tyrosine kinase inhibition; assay type: biochemical; conditions: ATP 120 μM, read-out: IC50 against FLT3
# Experimental: as §1, §2, §3
# c-Kit = c-Kit (Homo sapiens (Human), UniProt P10721); assay: HTRF in vitro tyrosine kinase inhibition; assay type: biochemical; conditions: ATP 120 μM, read-out: IC50 against c-Kit
# Experimental: as §1, §2, §3
# [3] = 29 AML patients, single dose 50 mg to 350 mg; cited from earlier work
# [4] = Toxicity and animal's weight in MV-4-11 nude mouse study; conditions: 80 mg/kg intragastric, 21 days
# Experimental: MV-4-11 cells (FLT3-ITD mutant human acute biphenotypic myeloid leukemia cell strain, ATCC) were cultured and expanded in vitro, and the cells in the logarithmic growth phase were collected and resuspended in a serum-free EMEM culture solution, and the cell suspension was injected subcutaneously with a syringe into the armpit of the front right limb of male Balb/c nude mice.
# FLT3 phosphorylation = conditions: dose of no less than 200 mg; cited from earlier work
# [5] = tested on: MV-4-11 (FLT3-ITD) xenograft tumor; conditions: oral 20 mg/kg/d; cited from earlier work
# [6] = tested on: relapsed or refractory AML; conditions: cited from earlier work
# [7] = 10 mg/kg intragastric once a day
# [8] = 80 mg/kg intragastric once a day
# Sequence of ALK (Q9UM73 19-1620, species assumed): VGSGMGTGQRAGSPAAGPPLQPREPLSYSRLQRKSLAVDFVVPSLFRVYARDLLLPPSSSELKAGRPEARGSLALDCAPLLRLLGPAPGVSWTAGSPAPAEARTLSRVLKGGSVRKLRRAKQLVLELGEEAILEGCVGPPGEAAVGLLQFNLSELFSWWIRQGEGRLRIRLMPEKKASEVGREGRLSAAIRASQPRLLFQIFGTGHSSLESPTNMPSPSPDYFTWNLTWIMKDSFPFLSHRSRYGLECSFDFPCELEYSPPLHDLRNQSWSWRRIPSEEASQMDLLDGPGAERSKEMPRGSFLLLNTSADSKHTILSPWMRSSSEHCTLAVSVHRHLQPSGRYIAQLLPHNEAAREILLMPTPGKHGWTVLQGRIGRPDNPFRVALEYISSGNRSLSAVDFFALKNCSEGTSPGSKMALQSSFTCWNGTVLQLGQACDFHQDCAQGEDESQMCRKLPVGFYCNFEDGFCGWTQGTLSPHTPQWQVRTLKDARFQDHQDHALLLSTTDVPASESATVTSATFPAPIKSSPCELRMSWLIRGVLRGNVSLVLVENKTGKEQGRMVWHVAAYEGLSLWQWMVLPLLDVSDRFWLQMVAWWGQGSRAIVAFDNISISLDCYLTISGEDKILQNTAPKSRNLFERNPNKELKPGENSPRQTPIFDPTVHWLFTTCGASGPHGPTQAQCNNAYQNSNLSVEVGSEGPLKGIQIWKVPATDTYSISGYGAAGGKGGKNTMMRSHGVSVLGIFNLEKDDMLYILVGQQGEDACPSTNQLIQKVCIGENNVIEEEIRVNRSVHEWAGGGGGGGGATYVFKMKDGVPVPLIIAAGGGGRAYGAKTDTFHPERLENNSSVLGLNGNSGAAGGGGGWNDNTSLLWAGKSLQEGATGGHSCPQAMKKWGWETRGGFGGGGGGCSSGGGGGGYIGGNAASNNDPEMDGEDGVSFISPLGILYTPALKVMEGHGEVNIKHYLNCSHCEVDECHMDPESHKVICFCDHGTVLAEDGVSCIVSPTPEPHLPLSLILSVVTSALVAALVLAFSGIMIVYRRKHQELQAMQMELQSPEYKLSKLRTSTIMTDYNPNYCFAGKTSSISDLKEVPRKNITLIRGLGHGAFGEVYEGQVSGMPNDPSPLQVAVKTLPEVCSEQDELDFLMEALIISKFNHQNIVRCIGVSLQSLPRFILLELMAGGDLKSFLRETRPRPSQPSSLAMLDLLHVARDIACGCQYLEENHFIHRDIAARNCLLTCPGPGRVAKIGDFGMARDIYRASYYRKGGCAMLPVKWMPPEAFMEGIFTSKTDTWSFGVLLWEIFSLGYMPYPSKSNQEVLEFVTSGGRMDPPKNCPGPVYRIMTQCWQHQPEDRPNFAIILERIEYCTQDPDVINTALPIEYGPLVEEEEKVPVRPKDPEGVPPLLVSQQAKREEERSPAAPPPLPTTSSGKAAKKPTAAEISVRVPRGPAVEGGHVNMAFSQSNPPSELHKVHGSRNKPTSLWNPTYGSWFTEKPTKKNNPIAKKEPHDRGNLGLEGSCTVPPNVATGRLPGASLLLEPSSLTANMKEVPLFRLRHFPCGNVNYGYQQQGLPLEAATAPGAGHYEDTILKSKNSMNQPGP
# Sequence of KDR (VEGFR2) (P35968 20-1356): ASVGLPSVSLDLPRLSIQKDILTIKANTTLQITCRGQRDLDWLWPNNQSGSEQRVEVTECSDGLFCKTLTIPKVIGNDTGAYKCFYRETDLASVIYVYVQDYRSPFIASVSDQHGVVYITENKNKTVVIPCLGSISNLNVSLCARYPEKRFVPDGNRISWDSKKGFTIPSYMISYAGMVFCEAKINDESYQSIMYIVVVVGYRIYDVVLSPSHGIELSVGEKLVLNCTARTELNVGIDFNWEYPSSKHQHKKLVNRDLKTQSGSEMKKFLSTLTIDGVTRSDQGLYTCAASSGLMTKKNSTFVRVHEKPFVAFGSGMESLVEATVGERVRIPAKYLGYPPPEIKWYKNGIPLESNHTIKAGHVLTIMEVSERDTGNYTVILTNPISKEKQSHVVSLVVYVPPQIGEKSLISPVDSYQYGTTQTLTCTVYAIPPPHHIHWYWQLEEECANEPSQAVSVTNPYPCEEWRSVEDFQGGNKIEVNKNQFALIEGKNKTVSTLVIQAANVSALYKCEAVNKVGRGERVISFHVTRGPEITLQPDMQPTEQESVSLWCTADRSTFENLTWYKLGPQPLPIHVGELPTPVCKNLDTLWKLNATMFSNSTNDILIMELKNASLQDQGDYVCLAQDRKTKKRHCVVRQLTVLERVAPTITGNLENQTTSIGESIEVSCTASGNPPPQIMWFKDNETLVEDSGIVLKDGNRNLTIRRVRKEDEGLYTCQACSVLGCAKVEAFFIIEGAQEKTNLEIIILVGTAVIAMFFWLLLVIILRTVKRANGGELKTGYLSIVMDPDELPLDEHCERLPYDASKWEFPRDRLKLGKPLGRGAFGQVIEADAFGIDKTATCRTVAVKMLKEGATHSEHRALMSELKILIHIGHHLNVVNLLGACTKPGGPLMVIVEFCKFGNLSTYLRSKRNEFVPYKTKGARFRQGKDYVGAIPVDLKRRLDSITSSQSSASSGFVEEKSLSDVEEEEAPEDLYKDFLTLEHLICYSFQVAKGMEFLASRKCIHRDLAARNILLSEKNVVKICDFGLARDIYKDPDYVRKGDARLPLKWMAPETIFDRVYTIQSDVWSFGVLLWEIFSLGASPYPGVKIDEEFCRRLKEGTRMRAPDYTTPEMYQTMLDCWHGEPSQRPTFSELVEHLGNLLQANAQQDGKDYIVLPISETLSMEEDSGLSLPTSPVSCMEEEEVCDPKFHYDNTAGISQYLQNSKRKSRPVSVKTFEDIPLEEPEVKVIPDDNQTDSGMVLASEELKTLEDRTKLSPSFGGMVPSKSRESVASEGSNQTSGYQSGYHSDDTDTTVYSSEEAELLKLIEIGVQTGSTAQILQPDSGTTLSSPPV
# Sequence of c-Kit (P10721 26-976): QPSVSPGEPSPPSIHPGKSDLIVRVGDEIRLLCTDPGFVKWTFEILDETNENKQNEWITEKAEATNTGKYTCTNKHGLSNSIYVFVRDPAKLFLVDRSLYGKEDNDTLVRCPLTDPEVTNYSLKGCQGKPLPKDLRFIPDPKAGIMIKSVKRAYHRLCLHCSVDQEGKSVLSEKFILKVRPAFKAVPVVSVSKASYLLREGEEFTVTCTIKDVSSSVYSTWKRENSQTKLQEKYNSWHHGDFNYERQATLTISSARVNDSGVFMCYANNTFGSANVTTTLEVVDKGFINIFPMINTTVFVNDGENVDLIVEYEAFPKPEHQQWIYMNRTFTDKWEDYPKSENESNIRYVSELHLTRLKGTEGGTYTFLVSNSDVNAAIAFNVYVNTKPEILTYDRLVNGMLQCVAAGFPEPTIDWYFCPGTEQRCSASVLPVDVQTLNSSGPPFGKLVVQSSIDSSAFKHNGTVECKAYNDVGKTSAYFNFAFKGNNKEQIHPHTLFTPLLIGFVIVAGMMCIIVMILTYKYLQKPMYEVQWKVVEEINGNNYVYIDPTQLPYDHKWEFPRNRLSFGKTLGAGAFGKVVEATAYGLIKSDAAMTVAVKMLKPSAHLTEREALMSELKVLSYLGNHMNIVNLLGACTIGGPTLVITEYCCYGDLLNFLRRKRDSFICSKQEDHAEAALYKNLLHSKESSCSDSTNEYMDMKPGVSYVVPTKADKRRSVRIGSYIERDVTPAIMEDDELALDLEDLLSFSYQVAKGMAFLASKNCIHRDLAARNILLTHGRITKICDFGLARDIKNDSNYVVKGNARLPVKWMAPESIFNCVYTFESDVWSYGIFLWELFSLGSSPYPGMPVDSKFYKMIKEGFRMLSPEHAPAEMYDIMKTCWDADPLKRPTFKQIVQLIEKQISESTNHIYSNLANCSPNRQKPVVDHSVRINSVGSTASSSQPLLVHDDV
# Sequence of FGFR1 (P11362 22-822, species assumed): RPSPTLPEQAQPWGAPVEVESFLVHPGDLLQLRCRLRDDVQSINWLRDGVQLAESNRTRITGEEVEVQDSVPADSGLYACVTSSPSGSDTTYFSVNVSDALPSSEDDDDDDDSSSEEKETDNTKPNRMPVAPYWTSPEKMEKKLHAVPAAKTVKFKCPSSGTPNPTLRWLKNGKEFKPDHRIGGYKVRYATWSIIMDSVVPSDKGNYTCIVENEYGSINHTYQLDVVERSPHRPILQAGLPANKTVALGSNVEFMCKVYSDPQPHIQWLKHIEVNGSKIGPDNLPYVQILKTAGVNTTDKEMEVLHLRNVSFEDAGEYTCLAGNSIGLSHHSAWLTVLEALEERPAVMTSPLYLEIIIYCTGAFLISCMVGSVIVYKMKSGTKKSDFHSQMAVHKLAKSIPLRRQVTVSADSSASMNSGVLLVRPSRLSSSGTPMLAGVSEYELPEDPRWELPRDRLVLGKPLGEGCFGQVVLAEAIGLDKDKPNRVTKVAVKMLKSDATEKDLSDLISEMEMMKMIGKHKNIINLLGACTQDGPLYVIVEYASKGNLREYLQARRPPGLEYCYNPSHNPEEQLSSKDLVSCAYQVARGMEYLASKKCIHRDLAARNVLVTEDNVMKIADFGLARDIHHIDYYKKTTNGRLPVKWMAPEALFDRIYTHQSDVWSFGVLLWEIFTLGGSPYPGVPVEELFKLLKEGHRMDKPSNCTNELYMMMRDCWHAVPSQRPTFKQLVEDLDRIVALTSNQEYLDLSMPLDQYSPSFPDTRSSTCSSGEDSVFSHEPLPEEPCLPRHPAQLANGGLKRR
smiles,measurement,setting,value
Cc1[nH]c(/C=C2\C(=O)Nc3ccc(F)cc32)c(C)c1NC(=O)N1CCN(C)CC1 [Compound 2],IC50,[1],178 nM
CCN1CCN(C(=O)Nc2c(C)[nH]c(/C=C3\C(=O)Nc4ccc(F)cc43)c2C)CC1 [Compound 3],IC50,[1],138 nM
CNC1CCN(C(=O)Nc2c(C)[nH]c(/C=C3\C(=O)Nc4ccc(F)cc43)c2C)CC1.Cl [Compound 5],Average volume of tumor d15,[2]; 2.5 mg/kg group,167.76 ± 11.65 mm^3
same,Average volume of tumor d36,"[2]; 2.5 mg/kg intragastric once a day, hydrochloride",359.18 ± 49.62** mm^3
same,anti-tumor effect (in words),[2]; 2.5 mg/kg intragastric,notable inhibition on the growth of the transplanted tumor
same,Average volume of tumor d15,[2]; 5 mg/kg group,167.69 ± 11.70 mm^3
same,Average volume of tumor d36,"[2]; 5 mg/kg intragastric once a day, hydrochloride",34.71 ± 4.32** mm^3
same,Average volume of tumor d15,[2]; 10 mg/kg group,167.75 ± 11.59 mm^3
same,Average volume of tumor d36,[2]; [7],28.41 ± 3.38** mm^3
same,Average volume of tumor d15,[2]; 80 mg/kg group,167.79 ± 13.04 mm^3
same,Average volume of tumor d36,[2]; [8],19.60 ± 4.21** mm^3
same,Average volume of tumor d15,[2]; 160 mg/kg group,167.59 ± 11.93 mm^3
same,Average volume of tumor d36,"[2]; 160 mg/kg intragastric once a day, hydrochloride",20.74 ± 1.38** mm^3
same,anti-tumor effect (in words),[2]; dose of no less than 5 mg/kg intragastric,the transplanted tumor subsided
same,IC50,KDR (VEGFR2),891 nM
same,IC50,FLT3-ITD,< 1.5 nM
same,IC50,ALK,4900 nM
same,IC50,FLT3 D835Y,17.3 nM
same,IC50,PDGFRβ,190 nM
same,IC50,FGFR1,2340 nM
same,IC50,RET,110 nM
same,IC50,FLT3,8.8 nM
same,IC50,c-Kit,286 nM
same,IC50,[1],66 nM
Cc1[nH]c(/C=C2\C(=O)Nc3ccc(F)cc32)c(C)c1NC(=O)NC1CCN(C)CC1 [Compound 7],IC50,[1],82.2 nM
CCN(CC)CCNC(=O)c1c(C)[nH]c(/C=C2\C(=O)Nc3ccc(F)cc32)c1C [Sunitinib],patients with drug-related adverse reactions,[3],31%
same,animal's weight (in words),[4],decreased significantly
same,Average volume of tumor d15,[2]; 10 mg/kg group,167.64 ± 12.88 mm^3
same,Average volume of tumor d36,[2]; [7],178.93 ± 13.89** mm^3
same,Average volume of tumor d15,[2]; 80 mg/kg group,167.62 ± 13.27 mm^3
same,Average volume of tumor d36,[2]; [8],22.17 ± 1.95** mm^3
same,patients with strong inhibitory effect on FLT3 phosphorylation,FLT3 phosphorylation,more than 50%
same,IC50,[1],74.3 nM
same,tumor inhibitory effect (in words),[5],significant tumor inhibitory effect
same,toxic reaction (in words),[6]; 75 mg group,grade 4 dose-limiting fatigue and hypertension
same,morphological reaction,"[6]; 16 patients, 50 or 75 mg·d^−1",1 case
same,partial reaction (PR),"[6]; 16 patients, 50 or 75 mg·d^−1",5 cases
